The values below come from patent US20230365537A1, “POLO LIKE KINASE 4 INHIBITORS” (ORIC Pharmaceuticals, Inc., priority 2021, published 2023).

The structures appear in SMILES notation.

The target of one assay is human recombinant PLK4 (Homo sapiens (Human), UniProt O00444). Description: PLK4 Biochemical Assay (ADP-Glo). The settings on record: 0.5 nM PLK4, 8.0 µM ATP, 4.7 µM MBP, 6 hours at RT. An outline of the steps:
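Luminescent ADP-Glo detection quantified ADP production, with ATP depletion for 40 min and detection for 30 min at room temperature. Compound and PLK4 (1.0 nM stock addition) were preincubated 15 min in HEPES pH 7.5 buffer containing MgCl2, EGTA, DTT, Brij-35 and BSA. IC50 values were obtained by four-parameter nonlinear regression.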
For orientation: ADP-Glo turns the ADP formed in a reaction into a luminescent signal.

The test system of the next assay is CHP-134 cells. Description: CHP134 CellTiter-Glo (CTG) Assay. Particulars: Homo sapiens, CHP-134, 120 h, 5 days, viable cells by CellTiter-Glo. In kind it is cell-based. In a few lines:
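Nine-point 1:3 dilution series, diluted into growth media, added in quadruplicate to CHP-134 cells plated 16 h earlier at 200 cells/well.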
A general note: Cellular ATP, detected with luciferase, serves as a proxy for viable cell number.

The target in assay [1] is human recombinant Aurora A (Homo sapiens (Human), UniProt O14965). Description: Aurora A Kinase Biochemical Assay (ADP-Glo). Particulars: ratio of Aurora A IC50 to PLK4 IC50 (selectivity).
Sequence of human recombinant Aurora A (O14965 whole entry): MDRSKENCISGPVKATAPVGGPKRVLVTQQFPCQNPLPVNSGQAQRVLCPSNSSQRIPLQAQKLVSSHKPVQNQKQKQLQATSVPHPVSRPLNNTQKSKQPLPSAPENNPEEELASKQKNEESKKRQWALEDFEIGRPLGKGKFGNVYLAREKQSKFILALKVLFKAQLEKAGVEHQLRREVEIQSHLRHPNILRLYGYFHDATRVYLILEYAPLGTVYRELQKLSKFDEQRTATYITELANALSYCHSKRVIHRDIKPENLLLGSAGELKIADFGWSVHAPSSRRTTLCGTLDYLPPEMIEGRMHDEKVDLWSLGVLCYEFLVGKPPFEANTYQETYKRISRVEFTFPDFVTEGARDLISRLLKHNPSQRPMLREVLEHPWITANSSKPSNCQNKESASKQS
The target in assay [2] is human recombinant Aurora B (Homo sapiens (Human), UniProt Q96GD4). Description: Aurora B Kinase Biochemical Assay (ADP-Glo). The settings on record: ratio of Aurora B IC50 to PLK4 IC50 (selectivity). An outline of the steps:
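IC50 derived by four-parameter nonlinear fit of ADP-Glo luminescence (ADP produced). Compound was preincubated 15 min at RT with 20 nM recombinant human Aurora B, in 50 mM HEPES pH 7.5, 10 mM MgCl2, 1 mM EGTA, 1 mM DTT, 0.01% Brij-35/BSA.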

Sequence of human recombinant Aurora B (Q96GD4 whole entry): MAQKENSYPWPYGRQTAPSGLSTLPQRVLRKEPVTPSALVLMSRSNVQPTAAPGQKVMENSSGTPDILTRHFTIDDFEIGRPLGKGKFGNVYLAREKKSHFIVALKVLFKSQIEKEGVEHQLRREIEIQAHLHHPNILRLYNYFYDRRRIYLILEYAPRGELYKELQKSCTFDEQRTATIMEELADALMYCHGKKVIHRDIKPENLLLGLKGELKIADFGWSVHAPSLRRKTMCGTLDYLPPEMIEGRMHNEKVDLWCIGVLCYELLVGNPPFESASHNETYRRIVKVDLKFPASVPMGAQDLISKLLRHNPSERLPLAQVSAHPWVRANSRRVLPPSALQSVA
Sequence of human recombinant PLK4 (O00444 whole entry): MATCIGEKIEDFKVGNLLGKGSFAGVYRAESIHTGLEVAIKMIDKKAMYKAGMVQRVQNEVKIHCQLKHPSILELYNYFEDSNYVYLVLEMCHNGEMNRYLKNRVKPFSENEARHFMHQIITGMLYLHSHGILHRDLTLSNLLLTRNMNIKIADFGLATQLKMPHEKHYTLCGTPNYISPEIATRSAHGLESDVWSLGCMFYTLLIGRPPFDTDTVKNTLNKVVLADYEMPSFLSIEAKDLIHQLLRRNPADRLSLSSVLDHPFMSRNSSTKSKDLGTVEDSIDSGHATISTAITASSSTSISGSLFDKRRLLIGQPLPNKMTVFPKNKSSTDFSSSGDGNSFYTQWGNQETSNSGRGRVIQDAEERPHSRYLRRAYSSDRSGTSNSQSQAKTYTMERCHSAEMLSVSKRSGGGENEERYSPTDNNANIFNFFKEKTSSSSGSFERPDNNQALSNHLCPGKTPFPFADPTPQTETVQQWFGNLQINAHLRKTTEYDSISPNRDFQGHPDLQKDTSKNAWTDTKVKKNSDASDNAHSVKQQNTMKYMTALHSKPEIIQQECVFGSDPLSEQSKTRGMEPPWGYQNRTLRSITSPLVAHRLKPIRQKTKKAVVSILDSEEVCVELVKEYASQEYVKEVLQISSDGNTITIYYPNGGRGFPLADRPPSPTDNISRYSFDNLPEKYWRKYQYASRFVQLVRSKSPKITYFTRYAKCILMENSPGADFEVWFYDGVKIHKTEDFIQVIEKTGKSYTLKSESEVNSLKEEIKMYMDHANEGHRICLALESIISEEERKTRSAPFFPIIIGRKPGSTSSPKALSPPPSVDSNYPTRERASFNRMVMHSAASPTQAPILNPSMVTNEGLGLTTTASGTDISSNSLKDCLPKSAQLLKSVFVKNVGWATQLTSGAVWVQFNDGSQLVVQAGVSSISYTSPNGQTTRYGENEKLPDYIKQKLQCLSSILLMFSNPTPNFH

As a reminder, the IC50 is the midpoint of a concentration-inhibition curve. As for `COc1ccc2c(c1)[C@]1(C[C@H]1c1ccc3c(Nc4cc(C(=O)N5CCOCC5)ccc4OC)n[nH]c3c1)C(=O)N2` [Example 180, (1R,2S)-5′-methoxy-2-{3-[2-methoxy-5-(morpholine-4-carbonyl)anilino]-1H-indazol-6-yl}spiro[cyclopropane-1,3′-indol]-2′(1′H)-one], the IC50 was 2.85 nM at human recombinant PLK4 and 741 nM in the assay on CHP-134 cells. For the same molecule, in assay [1], the “[Aurora A IC50 (nM)]/[PLK4 IC50 (nM)]” value came out at 5455.5011. Besides, the “[Aurora B IC50 (nM)]/[PLK4 IC50 (nM)]” value in assay [2] stood at 1996.8465.

As to `COc1ccc2c(c1)[C@]1(C[C@H]1c1ccc3c(Nc4ccc(C(=O)N5CCOCC5)nc4OC)n[nH]c3c1)C(=O)N2` [Example 183, (1R,2S)-5′-methoxy-2-(3-{[2-methoxy-6-(morpholine-4-carbonyl)pyridin-3-yl]amino}-1H-indazol-6-yl)spiro(cyclopropane-1,3′-indol]-2′(1′H)-one], the IC50 on human recombinant PLK4 came to 1.25 nM; in the assay on CHP-134 cells it was 125 nM. For the same molecule, in assay [1], the “[Aurora A IC50 (nM)]/[PLK4 IC50 (nM)]” value amounted to 534.2169. In assay [2], the “[Aurora B IC50 (nM)]/[PLK4 IC50 (nM)]” value is listed as 322.5703.

In the case of `COc1ccc2c(c1)[C@]1(C[C@H]1c1ccc3c(Nc4ccc(C(=O)N5CC(F)(F)C5)nc4OC)n[nH]c3c1)C(=O)N2` [Example 184, (1R,2S)-2-(3-{[6-(3,3-difluoroazetidine-1-carbonyl)-2-methoxypyridin-3-yl]amino}-1H-indazol-6-yl)-5′-methoxyspiro[cyclopropane-1,3′-indol]-2′(1′H)-one], the IC50 at human recombinant PLK4 turned out to be 7 nM; in the assay on CHP-134 cells it was 882 nM. For the same molecule, the “[Aurora A IC50 (nM)]/[PLK4 IC50 (nM)]” value in assay [1] was found to be 7144.8985. Moreover, in assay [2], the “[Aurora B IC50 (nM)]/[PLK4 IC50 (nM)]” value is listed as 7144.8985.

With `COc1ccc2c(c1)[C@]1(C[C@H]1c1ccc3c(Nc4ccc(C(=O)N5CCC(F)(F)CC5)nc4OC)n[nH]c3c1)C(=O)N2` [Example 185, (1R,2S)-2-(3-{[6-(4,4-difluoropiperidine-1-carbonyl)-2-methoxypyridin-3-yl]amino}-1H-indazol-6-yl)-5′-methoxyspiro[cyclopropane-1,3′-indol]-2′(1′H)-one], the IC50 is 1.96 nM on human recombinant PLK4 and 134 nM with CHP-134 cells. The “[Aurora A IC50 (nM)]/[PLK4 IC50 (nM)]” value in assay [1] is listed as 3240.7975. Further, the “[Aurora B IC50 (nM)]/[PLK4 IC50 (nM)]” value in assay [2] is recorded as 180.1636.

Take `COc1ccc2c(c1)[C@]1(C[C@H]1c1cc(F)c3c(Nc4nc(SC)ncc4OC)n[nH]c3c1)C(=O)N2` [Example 186, (1R,2S)-2-(4-fluoro-3-{[5-methoxy-2-(methylsulfanyl)pyrimidin-4-yl]amino}-1H-indazol-6-yl)-5′-methoxyspiro[cyclopropane-1,3′-indol]-2′(1′H)-one]: the IC50 was 1.78 nM on human recombinant PLK4 and 537 nM with CHP-134 cells. The “[Aurora A IC50 (nM)]/[PLK4 IC50 (nM)]” value in assay [1] was 641.9337. Besides, in assay [2], the “[Aurora B IC50 (nM)]/[PLK4 IC50 (nM)]” value was 232.5464.

As for `COc1ccc2c(c1)[C@]1(C[C@H]1c1ccc3c(Nc4nc(OC)ncc4C)n[nH]c3c1)C(=O)N2` [Example 187, (1R,2S)-5′-methoxy-2-{3-[(2-methoxy-5-methylpyrimidin-4-yl)amino]-1H-indazol-6-yl}spiro[cyclopropane-1,3′-indol]-2′(1′H)-one], the figures for the IC50 on human recombinant PLK4 and in the assay with CHP-134 cells were 6.12 nM and 563 nM, respectively. Besides, the “[Aurora A IC50 (nM)]/[PLK4 IC50 (nM)]” value in assay [1] is recorded as 109.5814. Also, the “[Aurora B IC50 (nM)]/[PLK4 IC50 (nM)]” value in assay [2] is 112.2793.

In the case of `COc1ccc2c(c1)[C@]1(C[C@H]1c1ccc3c(Nc4ccc(C(=O)N5CC6(COC6)C5)nc4OC)n[nH]c3c1)C(=O)N2` [Example 188, (1R,2S)-5′-methoxy-2-(3-{[2-methoxy-6-(2-oxa-6-azaspiro[3.3]heptane-6-carbonyl)pyridin-3-yl]amino}-1H-indazol-6-yl)spiro[cyclopropane-1,3′-indol]-2′(1′H)-one], the IC50 came out at 6.27 nM at human recombinant PLK4 and 760 nM in the assay on CHP-134 cells. Besides, in assay [1], the “[Aurora A IC50 (nM)]/[PLK4 IC50 (nM)]” value was 7974.4817. In assay [2], the “[Aurora B IC50 (nM)]/[PLK4 IC50 (nM)]” value stood at 191.7065.
